From PMC7883289, “Synthesis of Paeonol-Ozagrel Conjugate: Structure Characterization and In Vivo Anti-Ischemic Stroke potential” (Frontiers in Pharmacology, 2021)

Experiments:
[1] = test system: middle cerebral artery occlusion (MCAO) rats; assay: Evaluation of neurological deficit (Longa score) in MCAO rats; format: in vivo; conditions: 24 h after reperfusion, single iv dose 2 h after reperfusion: paeonol and OS 3 mg/kg, POC 4.5 mg/kg, n = 6
Procedure: Male Sprague Dawley (SD) rats weighing among 220 g-230 g (Anhui Medicine University, Hefei, China; certificate number: SCXK20190,003) were housed under ad libitum access to food and water with a standardized light-dark cycle condition (25 ± 2°C, 12-hour light/dark cycle). All the experimental protocols were performed in accordance with the Institutional Animal Care and Use Committee of Anhui University of Chinese Medicine (Animal ethics number: AHUCM-rats-2019001). We used the minimal number of study animals (n = 6 rats in each group for different experiments). The rats were fastened upon the operating table in a supine position after being anesthetized with 2% pelltobarbitalum natricum (50 mg/kg). After disinfection of the skin within close proximity of the operative region, the right common carotid artery (CCA), external carotid artery (ECA) and internal carotid artery (ICA) were exposed with blunt dissection. The CCA was temporarily ligated and the ECA were permanently ligated ([Liu et al., 2016]). A nylon monofilament surgical thread was introduced into the ICA to block the MCA when the blunted distal end met resistance. After 2 h of occlusion, reperfusion was accomplished to restore blood supply to the MCA area by removing the filament ([Li et al., 2009]; [Zhai et al., 2017]). […] Rats were split randomly into five groups, including the sham, model, paeonol, OS and POC group. […] Neurological deficit was evaluated 24 h after reperfusion (blinded to experimenters). […] The rating score was assessed by the following standard: no neurological deficit, 0; failure to extend left forepaw fully, one; spontaneous circling to the left, two; falling to the left, three; inability to walk spontaneously and coma of consciousness, 4. […] Neurological scores for each group were calculated using six rats according to a sample size calculation (α err prob = 0.05, 1-β err prob = 0.95) and references ([Katayama et al., 2017]; [[…] al., 2019]; [Zheng et al., 2019]).

[2] = Pharmacokinetic study after intravenous injection, LC-MS/MS of plasma; format: in vivo; conditions: rat, rats, 4.5 mg/kg
Procedure: Six rats were given POC (4.5 mg/kg) by intravenous injection, then, an approximately 1.0 ml sample of blood was obtained from the fossa orbitalis vein of rats and placed into heparin–rinsed EP pipes according to a programmed schedule at 3, 5, 10, 20, 30, 45, 60, 120, and 240 min after dosing.
Plasma (80 μL) was mixed with glibenclamide (20 μL) as the internal standard, and then 900 μL of acetonitrile was used to precipitate the protein. All samples were vortex–mixed for 5 min, then centrifuged at 15,000 r/min for 10 min. Then, 800 μL of supernatant was measured, blowed dry by nitrogen, and reconstituted with 100 μL of acetonitrile.
The Thermo Fisher Scientific Hypersil GOLD column (2.1 mm × 100 mm, 1.9 μm) was used as the analytical column; it was maintained at 30°C with 1.0 mmol/L of ammonium acetate (A) and mathanol (B) as the mobile phase, using glibenclamide as the internal standard (IS). The gradient elution program was operated as follows: 0–1.5 min, 55% B–65% B; 1.5–2.5 min, 65% B–80% B; 2.5–3.0 min, 80% B–90% B; 3.0–4.0 min, 90% B; 4.0–4.5 min, 90% B–55% B; 4.5–6.0 min, 55% B. The sample injection volume was 5.0 μL, and the flow rate set at 0.2 ml/min.
Mass spectrometry was operated with multiple reaction monitoring (MRM) in a positive ionization mode. The ion pair of POC is m/z 377.1 and 163.0; the declustering voltage (DP) is 28 eV; and the collision energy (CE) is 30 eV. The ion pair of glibenclamide is m/z 494.1 and 169.0, and the DP is 65 eV, the CE is 50 eV.

With `COc1ccc(C(C)=O)c(OC(=O)C=Cc2ccc(Cn3ccnc3)cc2)c1` [POC, paeonol-ozagrel conjugate] the “neurological deficits score (Longa, 0-4)” value [1] was 1.50 ± 0.55, the AUC(0-t) [2] was 264 ng·h/mL and the Cmax [2] was 465 ± 269 ng/mL. The clearance [2] was 277 ± 62.3 mL/min/kg, the half-life [2] was 53.5 ± 19.6 min and the MRT last ([2]; read-out: MRT0-t (converted)) was 51.9 min.
